One data set deals with HEK293. Briefly: Cytotoxicity against human HEK293 cells after 48 hrs by MTT assay. Format: cell-based. As to conditions: HEK293, 48 h. (In general: Formazan colour is commonly taken as a measure of viable cells.)
Data set [1] in a line: Ratio of IC50 for HEK293 cells to IC50 for human HepG2 cells. It is filed as toxicity. As to conditions: HEK293 cells versus HepG2 cells, read-out: Ratio IC50.
For the next data set, the system named is MCF7. The data set is described as follows: Cytotoxicity against human MCF7 cells after 48 hrs by MTT assay. It is filed as functional, cell-based. The note with it: MCF7, 48 h.
For the next data set, the system named is HepG2. Briefly: cells. The note with it: Homo sapiens, HepG2, 48 h.
Data set [2] has as its target T1, Carbonic anhydrase 9 (Homo sapiens, UniProt Q16790). Briefly: Inhibition of human carbonic anhydrase 9 using 4-NPA as substrate after 3 mins by spectrophotometric analysis.
Data set [3] in a line: Ratio of IC50 for HEK293 cells to IC50 for human MCF7 cells. It is filed as toxicity. The note with it: HEK293 cells versus MCF7 cells, read-out: Ratio IC50.
The next data set deals with Carbonic anhydrase 2 (Homo sapiens, UniProt P00918). Briefly: Inhibition of human carbonic anhydrase 2 using 4-NPA as substrate after 3 mins by spectrophotometric analysis.
The target of data set [4] is T1, Carbonic anhydrase 9. Briefly: Binding affinity to human carbonic anhydrase 9 by spectrofluorimetric analysis.

Description for HepG2: Cytotoxicity against human HepG2 cells after 48 hrs by MTT assay

In the case of `S=C(NCc1ccncc1)Nc1ccccc1`, the concentration for half-maximal inhibition (IC50) (in general, the concentration at which inhibition is half-maximal) with HEK293 was 47.2 µM; in the data set with MCF7, 37.3 µM; with HepG2 it was 19.3 µM; at Carbonic anhydrase 9 [2] it was 17.9 µM. Besides, the selectivity ratio in data set [1] was 2.4; in data set [3], 1.2.

For `CC(C)c1ccc(/C=C2/S/C(=N/c3ccccc3)N(Cc3ccncc3)C2=O)cc1`, the half-maximal inhibitory concentration (IC50) in the data set with HEK293 is 137 µM; with MCF7, 53.3 µM; in the data set on HepG2, 32.3 µM; against Carbonic anhydrase 9 [2], 63.1 µM. The selectivity ratio was found to be 4.2 in data set [1] and 2.5 in data set [3].

`COc1cc(/C=C2/S/C(=N/c3ccccc3)N(Cc3ccncc3)C2=O)ccc1O`: the concentration for half-maximal inhibition (IC50) with HEK293 was determined as 67.4 µM; in the data set with MCF7, 28 µM; in the data set with HepG2 it was 28.6 µM; at Carbonic anhydrase 9 [2] it was 60.9 µM. The selectivity ratio is 2.3 in data set [1] and 2.4 in data set [3].

Take `O=C1/C(=C\c2ccccc2)S/C(=N/c2ccccc2)N1Cc1ccncc1`: the 50% inhibitory concentration (IC50) in the data set with HEK293 is 64.7 µM; in the data set with MCF7, 26.4 µM; in the data set with HepG2, 25.2 µM; against Carbonic anhydrase 9 [2], 50.9 µM. In addition, the selectivity ratio in data set [1] was found to be 2.5; in data set [3] it was 2.4.

As to `Cc1ccc(/C=C2/S/C(=N/c3ccccc3)N(Cc3ccncc3)C2=O)s1`, the IC50 was determined as 146 µM in the data set with HEK293, 28.7 µM in the data set on MCF7, 23.1 µM in the data set on HepG2 and 10 µM against Carbonic anhydrase 9 [2]. For the same molecule, the selectivity ratio in data set [1] is 6.3; in data set [3] it was 5.1.

As for `O=C1/C(=C\c2cccc(Cl)c2)S/C(=N/c2ccccc2)N1Cc1ccncc1`, the half-inhibitory concentration (IC50) with HEK293 is 71.8 µM; with MCF7, 29.8 µM; in the data set with HepG2 it was 28.9 µM; against Carbonic anhydrase 9 [2] it was 43.5 µM. The selectivity ratio in data set [1] and in data set [3] was 2.4 in each case.

Consider `O=C1/C(=C\c2ccc(Cl)cc2)S/C(=N/c2ccccc2)N1Cc1ccncc1`, for which the IC50 in the data set with HEK293 was 42.3 µM; in the data set with MCF7 it was 54.9 µM; with HepG2 it was 28.8 µM; against Carbonic anhydrase 9 [2], 40.2 µM. The selectivity ratio in data set [1] was 1.4; in data set [3], 1.1.

As for `COc1ccc(OC)c(/C=C2/S/C(=N/c3ccccc3)N(Cc3ccncc3)C2=O)c1`, the IC50 with HEK293 stood at 80.1 µM; with MCF7 it was 37 µM; with HepG2, 35.8 µM; against Carbonic anhydrase 9 [2] it was 16.7 µM. Besides, the selectivity ratio in data set [1] is 2.2; in data set [3] it was 2.1.

On to `O=C1/C(=C\c2ccc(O)cc2)S/C(=N/c2ccccc2)N1Cc1ccncc1`, for which the concentration for half-maximal inhibition (IC50) in the data set on HEK293 came to 142 µM; in the data set on MCF7 it was 18.9 µM; in the data set with HepG2, 11.8 µM; at Carbonic anhydrase 9 [2], 6.72 µM. In addition, the selectivity ratio in data set [1] stood at 12; in data set [3], 7.5.

On to `CN(C)c1ccc(/C=C2/S/C(=N/c3ccccc3)N(Cc3ccncc3)C2=O)cc1`, for which the IC50 in the data set with HEK293 stood at 122 µM; in the data set on MCF7, 76.3 µM; in the data set on HepG2 it was 52.6 µM; against Carbonic anhydrase 9 [2], 32.9 µM. In addition, the selectivity ratio in data set [1] was found to be 2.3; in data set [3] it was 1.6.

As for `COc1ccc(/C=C2/S/C(=N/c3ccccc3)N(Cc3ccncc3)C2=O)cc1OC`, the IC50 in the data set with HEK293 amounted to 171 µM; in the data set on MCF7, 80.7 µM; with HepG2, 28.9 µM; against Carbonic anhydrase 9 [2], 20.9 µM. The selectivity ratio in data set [1] was 5.9; in data set [3] it was 2.1.

Regarding `O=C1/C(=C\c2ccc3c(c2)OCO3)S/C(=N/c2ccccc2)N1Cc1ccncc1`, the IC50 with HEK293 is 64.8 µM; in the data set on MCF7, 35.2 µM; in the data set on HepG2 it was 24.4 µM; against Carbonic anhydrase 9 [2], 58.4 µM. For the same molecule, the selectivity ratio in data set [1] worked out at 2.6; in data set [3], 1.8.

For `O=C1CS/C(=N/c2ccccc2)N1Cc1ccncc1`, the IC50 with HEK293 came out at 99.5 µM; in the data set on MCF7, 65.8 µM; with HepG2 it was 26 µM; against Carbonic anhydrase 9 [2], 26.1 µM. In addition, the selectivity ratio in data set [1] was 3.8; in data set [3], 1.5.

With `O=C1/C(=C\c2cccc(O)c2)S/C(=N/c2ccccc2)N1Cc1ccncc1`, the half-inhibitory concentration (IC50) in the data set with HEK293 was 150 µM; in the data set on MCF7 it was 43.6 µM; in the data set with HepG2, 17.6 µM; on Carbonic anhydrase 9 [2] it was 10.8 µM. Moreover, the selectivity ratio in data set [1] was 8.5; in data set [3] it was 3.4.

Take `O=C1/C(=C\c2ccc(O)c(O)c2)S/C(=N/c2ccccc2)N1Cc1ccncc1`: the IC50 came out at 27.2 µM on Carbonic anhydrase 2; 230 µM in the data set on HEK293; 2.32 µM on Carbonic anhydrase 9 [4]; 12.4 µM with MCF7; 16.2 µM in the data set with HepG2; 1.84 µM at Carbonic anhydrase 9 [2]. For the same molecule, the selectivity ratio is 14.2 in data set [1] and 18.5 in data set [3].

As for `COc1ccc(/C=C2/S/C(=N/c3ccccc3)N(Cc3ccncc3)C2=O)cc1`, the IC50 in the data set with HEK293 was determined as 47.9 µM; with MCF7 it was 31.5 µM; with HepG2 it was 19.1 µM; on Carbonic anhydrase 9 [2], 40.4 µM. The results for the selectivity ratio in data set [1] and in data set [3] were 2.5 and 1.5, respectively.

Take `CCOc1cc(/C=C2/S/C(=N/c3ccccc3)N(Cc3ccncc3)C2=O)ccc1O`: the IC50 in the data set on HEK293 came to 46.5 µM; with MCF7, 20.1 µM; in the data set with HepG2 it was 20.4 µM; on Carbonic anhydrase 9 [2], 38.4 µM. Besides, the selectivity ratio worked out at 2.2 in data set [1] and 2.3 in data set [3].

Regarding `O=C1/C(=C\c2ccccn2)S/C(=N/c2ccccc2)N1Cc1ccncc1`, the concentration for half-maximal inhibition (IC50) turned out to be 161 µM with HEK293, 21.1 µM in the data set with MCF7, 31 µM in the data set on HepG2 and 6.64 µM against Carbonic anhydrase 9 [2]. Also, the results for the selectivity ratio in data set [1] and in data set [3] were 5.2 and 7.6, respectively.

For the molecule `Cc1ccc(/C=C2/S/C(=N/c3ccccc3)N(Cc3ccncc3)C2=O)cc1`, the IC50 with HEK293 was found to be 49.5 µM; in the data set on MCF7 it was 36.9 µM; in the data set on HepG2 it was 19.7 µM; against Carbonic anhydrase 9 [2], 57.3 µM. For the same molecule, the selectivity ratio came out at 2.5 in data set [1] and 1.3 in data set [3].

As for `O=C1/C(=C\c2ccc([N+](=O)[O-])cc2)S/C(=N/c2ccccc2)N1Cc1ccncc1`, the IC50 against Carbonic anhydrase 2 amounted to 14.4 µM; in the data set on HEK293, 250 µM; at Carbonic anhydrase 9 [4], 11.2 µM; in the data set on MCF7, 13 µM; in the data set on HepG2, 18.9 µM; on Carbonic anhydrase 9 [2], 1.61 µM. The selectivity ratio in data set [1] worked out at 13.2; in data set [3] it was 19.2.

`COc1cccc2c1C(=O)c1c(O)c3c(c(O)c1C2=O)C[C@@](O)(C(=O)CO)C[C@@H]3O[C@H]1C[C@H](N)[C@H](O)[C@H](C)O1` [DOXORUBICIN] gave an IC50 in the data set on HEK293 of 148 µM.

The record behind these values is ChEMBL document CHEMBL4145457, “Design, synthesis and biological evaluation of novel pyridine-thiazolidinone derivatives as anticancer agents: Targeting human carbonic anhydrase IX” (Eur J Med Chem, 2018).
